{"source": "patent US10149809B2", "about": "“Skin aging inhibitor and concentrate of resveratrol 3-O-α-glucoside” (priority 2014, dated 2018)", "key": {"IL-1β gene": {"test_system": "IL-1β gene", "assay": "Reduction of inflammation through pretreatment: IL-1β gene expression, Poly I:C", "format": "cell-based", "settings": "normal human epidermal keratinocytes, pretreatment 0.001 wt % 24 hours, then Poly I:C 1 μg/mL 9 hours; control = 100%, comparative group 871", "protocol": "Normal human epidermal keratinocytes were seeded into 12-well culture plates at 5×10^4 cells per well. As the medium, EpiLife KG-2 medium (basal medium) supplemented with insulin, hEGF, hydrocortisone, anti-microbial agents, and BPE was used, and the cells were preincubated in 5% CO2 at 37° C. for 48 hours. Further, the cells were incubated for additional 24 hours in a medium obtained by removing hydrocortisone only from the basal medium (assay medium). Next, the medium was replaced with a sample medium obtained by supplementing the assay medium with resveratrol 3-O-α-glucoside to a concentration of 0.001 wt %, the cells were cultured in 5% CO2 at 37° C. for 24 hours, and the cultured cells were pretreated with resveratrol 3-O-α-glucoside. […] After the medium was removed and the cells were washed with PBS, total RNA was extracted from the cells, and the level of expression of the proinflammatory cytokine IL-1β gene was quantified by real time PCR. […]\nTaking as 100% the level of expression of the IL-1β gene for the control group, a relative ratio of the expression level of the IL-1β gene for each of the comparative group and the resveratrol 3-O-α-glucoside-supplemented group (IL-1β gene expression ratio, %) was calculated. […]"}, "[1]": {"test_system": "skin model (EPI-200X; MatTek)", "format": "in vitro ADME, human", "protocol": "Using a three-dimensional human skin model, permeabilities of resveratrol 3-O-α-glucoside and resveratrol into the skin model when administered via the skin surface were compared.\nResveratrol 3-O-α-glucoside or resveratrol (Tokyo Chemical Industry Co., Ltd.) was prepared into a 0.2 wt % solution or suspension with the addition of PBS, and the resulting solution was used as a test substance. The skin model (EPI-200X; MatTek) was loaded into a special fixture (EPI-100-FIX; MatTek), and placed in the 6-well plate of the receiver. One-hundred microliters of the test substance were added to the horny layer side, and 5 mL of PBS was added to the receiver side. After being allowed to stand at 37° C. for 20 hours, the skin model was collected, and the surface of the skin model was washed well with PBS. The skin model after being washed was homogenized in PBS. After the homogenate was centrifuged, resveratrols in the supernatant were quantified using HPLC under the same conditions as described in Production Example 1 above, and the amount of resveratrols was converted into the equivalent of agly cones."}, "sirtuin 1 gene": {"test_system": "sirtuin 1 gene", "assay": "Sirtuin 1 gene expression-promoting effect (1)", "format": "cell-based", "settings": "normal human epidermal keratinocytes, 0.02 wt %, 72 hours; control = 100%", "protocol": "Normal human epidermal keratinocytes were seeded into 12-well culture plates at 7.5×10^4 cells per well. As the medium, EpiLife KG-2 medium supplemented with insulin, hEGF, hydrocortisone, anti-microbial agents, and BPE was used (basal medium), and the cells were preincubated in 5% CO2 at 37° C. for 72 hours. The medium was removed and then replaced with a sample medium supplemented with resveratrol 3-O-α-glucoside to a concentration of 0.02 wt %, and the cells were cultured in 5% CO2 at 37° C. After 72 hours, total RNA was extracted from the cells, and the level of expression of the sirtuin 1 gene was quantified by real time PCR. As a control group, cells were cultured without resveratrol 3-O-α-glucoside, and total RNA collected from these cells was used.\nTaking as 100% the level of expression of the sirtuin 1 gene for the control group, a relative ratio of the expression level of the sirtuin 1 gene for the resveratrol 3-O-α-glucoside-supplemented group (SIRT 1 gene expression ratio, %) was determined. In the measurement of the expression level of the sirtuin 1 gene, PPIA was used for internal standard correction."}, "[2]": {"test_system": "matrix metalloproteinase 9 (MMP9) gene", "assay": "MMP9 gene expression in normal human dermal fibroblasts", "format": "cell-based", "settings": "0.001 wt %, 24 hours, control = 100%", "protocol": "Using normal human dermal fibroblasts, the effect of resveratrol 3-O-α-glucoside on matrix metalloproteinase 1 (MMP1) and 9 (MMP9) genes in the dermis was investigated.\nNormal human dermal fibroblasts were seeded into 12-well culture plates at 9×10^4 cells per well. As the medium, 10 vol % FBS (Fetal Bovine Serum)-containing DMEM medium (basal medium) was used, and the cells were preincubated in 5% CO2 at 37° C. for 24 hours. The medium was removed and then replaced with a basal medium supplemented with 0.001 wt % of resveratrol 3-O-α-glucoside, and the cells were cultured in 5% CO2 at 37° C. After 24 hours, total RNA was extracted from the cells, and the levels of expression of the MMP1 and MMP9 genes were quantified by real time PCR. As a control group, cells were cultured without resveratrol 3-O-α-glucoside, and total RNA collected from these cells was used.\nTaking as 100% the level of expression of each of the MMP1 and MMP9 genes for the control group, a relative ratio of the expression level of each of the MMP1 and MMP9 genes for the resveratrol 3-O-α-glucoside-supplemented group (MMP1 and MMP9 gene expression ratios, %) was determined. In the measurement of the expression level of each of the MMP1 and MMP9 genes, GAPDH (glyceraldehyde 3-phosphate dehydrogenase) was used for internal standard correction."}}, "data": [{"smiles": "OC[C@H]1O[C@H](Oc2cc(O)cc(C=Cc3ccc(O)cc3)c2)[C@H](O)[C@@H](O)[C@@H]1O", "note": "[Resveratrol 3-O-α-Glucoside, resveratrol 3-O-α-glucoside]", "values": [{"measurement": "IL-1β Gene Expression Ratio (%)", "setting": "IL-1β gene", "value": 697, "unit": "%"}, {"measurement": "amount of permeation into the skin model relative to resveratrol", "setting": "[1]", "value": 3.5, "unit": "times"}, {"measurement": "SIRT 1 Gene Expression Ratio (%)", "setting": "sirtuin 1 gene", "value": 171, "unit": "%"}, {"measurement": "MMP9 Gene Expression Ratio (%)", "setting": "[2]", "value": 45, "unit": "%"}]}]}
